Laboratory results taken from US8399419B2, “Antibacterial aminoglycoside analogs” (Achaogen, Inc., priority 2008, dated 2013).
In brackets after ≈: the same amount, converted by molar mass.

Tests used:
E. coli ATCC 25922 = assay: MIC assay (CLSI broth microdilution), AECO001; format: cell-based; details: Escherichia coli; AECO001 is ATCC25922 (E. coli); Mueller Hinton Broth, 35 C, 20 hours
Protocol: (§1) Minimum inhibitory concentrations (MIC) were determined by reference Clinical and Laboratory Standards Institute (CLSI) broth microdilution methods per M7-A7 [2006]. Quality control ranges utilizing E. coli ATCC 25922, P. aeruginosa ATCC 27853 and S. aureus ATCC 29213, and interpretive criteria for comparator agents were as published in CLSI M100-S17 [2007]. Briefly, serial two-fold dilutions of the test compounds were prepared at 2× concentration in Mueller Hinton Broth. The compound dilutions were mixed in 96-well assay plates in a 1:1 ratio with bacterial inoculum. The inoculum was prepared by suspension of a colony from an agar plate that was prepared the previous day. Bacteria were suspended in sterile saline and added to each assay plate to obtain a final concentration of 5×10^5 CFU/mL. The plates were incubated at 35 C for 20 hours in ambient air.

P. aeruginosa ATCC 27853 = assay: MIC assay (CLSI broth microdilution), APAE001; format: cell-based; details: Pseudomonas aeruginosa; APAE001 is ATCC27853 (P. aeruginosa); Mueller Hinton Broth, 35 C, 20 hours
Protocol: as §1

SMILES	MIC (E. coli ATCC 25922) [µg/mL]	MIC (P. aeruginosa ATCC 27853) [µg/mL]
NC[C@@H]1CC[C@@H](N)[C@@H](O[C@H]2[C@H](O[C@@H]3O[C@H](CO)[C@@H](O[C@H]4O[C@@H](CN)CC[C@H]4N)[C@H]3O)[C@@H](O)[C@H](NC(=O)[C@H](O)C(F)(F)CN)C[C@@H]2N)O1 [Example 27/Compound 6, 3′,4′,3′″,4′″-tetra-deoxy-1-(4-amino-3,3-bisfluoro-2(S)-hydroxy-butyryl)-neomycin]	1 to 16 (≈ 1.45 to 23.3 µM)	1 to 16 (≈ 1.45 to 23.3 µM)
NC[C@@H]1CC[C@@H](N)[C@@H](O[C@H]2[C@H](O[C@@H]3O[C@H](CO)[C@@H](O[C@H]4O[C@@H](CN)CC[C@H]4N)[C@H]3O)[C@@H](O)[C@H](NC(=O)C3(O)CC(N)C3)C[C@@H]2N)O1 (stereo partly shown) [Example 9/Compound 4]	≤ 1	≤ 1
NC[C@@H]1CC[C@@H](N)[C@@H](O[C@H]2[C@H](O[C@@H]3O[C@H](CO)[C@@H](O[C@H]4O[C@@H](CN)CC[C@H]4N)[C@H]3O)[C@@H](O)[C@H](NC(=O)[C@@H](O)[C@@H](O)CN)C[C@@H]2N)O1 [Example 28/Compound 6, 3′,4′,3′″,4′″-tetra-deoxy-1-(4-amino-3,2-(S,S)-bis-hydroxy-butyryl)-neomycin]	≤ 1	≤ 1
NC[C@@H]1CC[C@@H](N)[C@@H](O[C@H]2[C@H](O[C@@H]3O[C@H](CO)[C@@H](O[C@H]4O[C@@H](CN)CC[C@H]4N)[C@H]3O)[C@@H](O)[C@H](NC(=O)C3(O)CNC3)C[C@@H]2N)O1 [Example 10/Compound 4]	≤ 1	≤ 1
NCCN(O)C(=O)N[C@@H]1C[C@H](N)[C@@H](O[C@H]2O[C@H](CN)CC[C@H]2N)[C@H](O[C@@H]2O[C@H](CO)[C@@H](O[C@H]3O[C@@H](CN)CC[C@H]3N)[C@H]2O)[C@H]1O [Example 22/Compound 6]	≤ 1	≤ 1
